Earlier results, collected in patent US12453729B2, “Pharmaceutical formulations” (AstraZeneca AB, priority 2020, dated 2025).

How the values were obtained:
ERα receptor [1] = target: T1, ERα receptor (Homo sapiens, UniProt P03372); settings: in vitro breast cancer cell line experiments
T1 sequence (P03372 1-595): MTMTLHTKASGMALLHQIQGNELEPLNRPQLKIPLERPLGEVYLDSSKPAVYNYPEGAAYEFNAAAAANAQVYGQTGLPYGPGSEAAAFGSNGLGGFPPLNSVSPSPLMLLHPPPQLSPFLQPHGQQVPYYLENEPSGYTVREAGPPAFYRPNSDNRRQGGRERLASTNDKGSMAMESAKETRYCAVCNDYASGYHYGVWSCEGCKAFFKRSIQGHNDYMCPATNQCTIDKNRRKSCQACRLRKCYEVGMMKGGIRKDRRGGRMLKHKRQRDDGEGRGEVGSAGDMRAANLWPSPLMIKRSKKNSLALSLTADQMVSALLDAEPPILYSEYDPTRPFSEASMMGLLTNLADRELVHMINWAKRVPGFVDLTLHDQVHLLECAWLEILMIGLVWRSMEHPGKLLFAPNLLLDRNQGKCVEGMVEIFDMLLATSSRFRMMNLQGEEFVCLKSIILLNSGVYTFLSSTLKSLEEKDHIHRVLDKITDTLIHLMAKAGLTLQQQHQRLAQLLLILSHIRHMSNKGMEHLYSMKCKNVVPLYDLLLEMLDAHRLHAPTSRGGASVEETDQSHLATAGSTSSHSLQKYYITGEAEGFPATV

ERα receptor [2] = target: T1, ERα receptor; settings: patient samples; 500 mg monthly dose

C[C@]12CC[C@@H]3c4ccc(O)cc4C[C@@H](CCCCCCCCC[S+]([O-])CCCC(F)(F)C(F)(F)F)[C@H]3[C@@H]1CC[C@@H]2O (some centres unmarked) [Fulvestrant]
down-regulation of the receptor (ERα receptor [1]): complete down-regulation
turnover of the receptor (ERα receptor [2]): less than 50%
